What all share (type): functional, cell-based
For assay [1], the system named is Huh-7. The experiment in a line: Antiproliferative activity against human Huh-7 cells assessed as reduction in cell viability after 48 hr by CCK-8 assay. Particulars: Huh-7, 48 h.
Assay [2] deals with HepG2. Briefly: Antiproliferative activity against human HepG2 cells assessed as reduction in cell viability after 48 hr by CCK-8 assay. The following applies: HepG2, 48 h. (In general: Tetrazolium assays rely on reduction of a dye to a coloured formazan, in cell work by metabolically active cells.)
The nature of assay [3]: Antiproliferative activity against rat MRMT-1 cells assessed as reduction in cell viability after 48 hr by CCK-8 assay. Particulars: MRMT-1, 48 h.

Where a SMILES comes first, the peptide text is derived from it. [ ]: non-standard residue; d: D form. ξ: configuration not given here. NMeF = CN[C@@H](Cc1ccccc1)C(=O)O; Hica(2S) = CC(C)C[C@H](O)C(=O)O; ξLac(3-iPr) = CC(C)CC(O)C(=O)O

Take `CCC(C)[C@H]1OC(=O)[C@H](C(C)C)N(C)C(=O)[C@@H](C(C)CC)OC(=O)[C@H](C(C)C)N(C)C(=O)[C@@H](C(C)CC)OC(=O)[C@H](C(C)C)N(C)C1=O` (stereo partly specified): the IC50 – broadly, the concentration at which inhibition is half-maximal – was 9.1 µM in assay [1], 3.3 µM in assay [2] and 6.8 µM in assay [3].

As to `CN1C(=O)[C@@](C)(O)C(=O)[C@@H]1Cc1ccc2c(c1)CC(C(C)(C)O)O2` (stereo partly specified) [RIGIDIUSCULAMIDE C], the half-inhibitory concentration (IC50) in assay [1], in assay [2] and in assay [3] was > 50 µM in each case.

`O=c1[nH]cc(F)c(=O)[nH]1` [FLUOROURACIL]: the values for the IC50 in assay [1], in assay [2] and in assay [3] were 30.3 µM, 36.1 µM and 25.7 µM, respectively.

Consider `CCCCC/C=C\CCC(=O)OC1=C(c2ccccc2)CCC1=O`, for which the IC50 in assay [1], in assay [2] and in assay [3] was > 50 µM in each case.

With `COC(=O)/C=C/c1c(CC=C(C)C)ncn1C`, the IC50 in assay [1], in assay [2] and in assay [3] was > 50 µM each time.

In the case of `CC(C)CC1OC(=O)[C@H](Cc2ccccc2)NC(=O)[C@H](Cc2ccccc2)NC(=O)[C@H](Cc2ccccc2)NC(=O)[C@H](Cc2ccc(O)cc2)NC1=O` (stereo partly specified) (cyclo(FFF[ξLac(3-iPr)]Y)), the values for the IC50 in assay [1], in assay [2] and in assay [3] were 46.2 µM, 10.7 µM and > 50 µM, respectively.

With `CC(=O)CC(O)Cc1cc2cc(O)cc(O)c2c(=O)o1` (stereo unspecified), the IC50 in assay [1], in assay [2] and in assay [3] was > 50 µM in each case.

As to `CCCCCCCC(=O)OC1=C(c2ccccc2)CCC1=O`, the IC50 in assay [1], in assay [2] and in assay [3] was > 50 µM throughout.

Regarding `CCC(C)[C@H]1OC(=O)[C@H](C(C)C)N(C)C(=O)[C@@H](C(C)CC)OC(=O)[C@H](CC(C)C)N(C)C(=O)[C@@H](C(C)CC)OC(=O)[C@H](C(C)C)N(C)C1=O` (stereo partly specified), the figures for the IC50 in assay [1], in assay [2] and in assay [3] were 3.3 µM, 1.4 µM and 2.8 µM, respectively.

`CC(C)(O)[C@H]1Cc2cc(C=O)ccc2O1`: the IC50 in assay [1], in assay [2] and in assay [3] was > 50 µM each time.

For the molecule `CC(C)CC1OC(=O)[C@H](Cc2ccccc2)NC(=O)[C@H](Cc2ccccc2)NC(=O)[C@H](Cc2ccccc2)NC(=O)[C@H](Cc2ccccc2)NC(=O)[C@H](Cc2c[nH]c3ccccc23)NC1=O` (stereo partly specified) (cyclo(FFFF[ξLac(3-iPr)]W)), the figures for the IC50 in assay [1], in assay [2] and in assay [3] were 30.3 µM, 15.4 µM and 17.3 µM, respectively.

Regarding `CC[C@H](C)[C@H]1OC(=O)[C@H](C(C)C)N(C)C(=O)[C@@H](C(C)C)OC(=O)[C@H](C(C)C)N(C)C(=O)[C@@H]([C@@H](C)CC)OC(=O)[C@H](C(C)C)N(C)C1=O`, the IC50 stood at 6.2 µM in assay [1], 2.8 µM in assay [2] and 2.7 µM in assay [3].

In the case of `CCC(C)C1NC(=O)C(CC(C)C)NC(=O)C(C(C)CC)NC(=O)C(CC(C)C)NC(=O)C(CC(C)C)NC1=O` (stereo unspecified) (cyclo(ILILL); configuration not given here), the IC50 in assay [1] was > 50 µM; in assay [2], 14.1 µM; in assay [3], > 50 µM.

On to `CC(C)[C@H]1OC(=O)[C@H](Cc2ccccc2)N(C)C(=O)[C@@H](C(C)C)OC(=O)[C@H](Cc2ccccc2)N(C)C(=O)[C@@H](C(C)C)OC(=O)[C@H](Cc2ccccc2)N(C)C1=O`, for which the IC50 in assay [1] was determined as 4.3 µM; in assay [2], 1 µM; in assay [3], 8.7 µM.

Consider `CCCCCCCC(=O)O[C@@H]1[C@](N)(C(=O)O)CC[C@]1(O)c1ccccc1`, for which the IC50 in assay [1], in assay [2] and in assay [3] was > 50 µM each time.

Consider `CC(C)C[C@@H]1OC(=O)[C@H](Cc2ccccc2)N(C)C(=O)[C@@H]2CCCN2C(=O)[C@H](C(C)C)NC(=O)[C@H](Cc2ccccc2)NC(=O)[C@@H]2CCCN2C(=O)[C@@H]2CCCN2C1=O` (cyclo(FVP[NMeF][Hica(2S)]PP)), for which the results for the IC50 in assay [1], in assay [2] and in assay [3] were > 50 µM, 20.1 µM and > 50 µM, respectively.

As for `CCCCC/C=C\CCC(=O)O[C@@H]1[C@](N)(C(=O)O)CC[C@]1(O)c1ccccc1`, the IC50 in assay [1], in assay [2] and in assay [3] was > 50 µM throughout.

These data come from ChEMBL document CHEMBL5126657, “Cytotoxic Cyclodepsipeptides and Cyclopentane Derivatives from a Plant-Associated Fungus Fusarium sp” (J Nat Prod, 2022).
